{"source": "ChEMBL document CHEMBL5518181", "about": "“Studies of antibacterial activity (in vitro and in vivo) and mode of action for des-acyl tridecaptins (DATs)” (Eur J Med Chem, 2024)", "key": {"[1]": {"assay": "Cmax in Swiss mouse kidney at 10 mg/kg, iv administered as single bolus dose and measured upto 24 hrs by LC-MS/MS analysis", "type": "ADME, organism-based"}, "Citrobacter freundii": {"tested_on": "Citrobacter freundii", "assay": "Antibacterial activity against Citrobacter freundii ATCC 8090 assessed as inhibition of bacterial growth incubated for 18 hrs", "type": "functional", "settings": "read-out: MIC100"}, "Escherichia coli [2]": {"tested_on": "Escherichia coli", "assay": "Antibacterial activity against wild-type Escherichia coli ATCC 25922 assessed as inhibition of bacterial growth by measuring fold increase in MIC incubated for 18 hrs in presence of 50% heat inactivated human serum relative to control", "type": "functional"}, "Cytochrome P450 2B6": {"target": "T1, Cytochrome P450 2B6 (Homo sapiens, UniProt P20813)", "T1 sequence (P20813 whole entry)": "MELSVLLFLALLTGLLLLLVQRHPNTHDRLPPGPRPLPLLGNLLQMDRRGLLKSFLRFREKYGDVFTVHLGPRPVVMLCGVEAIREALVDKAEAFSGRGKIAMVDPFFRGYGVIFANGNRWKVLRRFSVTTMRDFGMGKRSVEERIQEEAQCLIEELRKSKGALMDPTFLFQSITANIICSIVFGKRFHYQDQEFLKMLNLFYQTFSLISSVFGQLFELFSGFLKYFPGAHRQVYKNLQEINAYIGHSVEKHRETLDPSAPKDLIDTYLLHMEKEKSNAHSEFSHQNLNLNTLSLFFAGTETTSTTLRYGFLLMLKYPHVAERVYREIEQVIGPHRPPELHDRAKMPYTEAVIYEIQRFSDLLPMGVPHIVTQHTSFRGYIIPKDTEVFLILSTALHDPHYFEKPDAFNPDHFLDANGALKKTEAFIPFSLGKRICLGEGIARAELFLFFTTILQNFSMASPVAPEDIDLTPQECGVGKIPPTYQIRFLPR", "assay": "Induction of CYP2B6 (unknown origin)", "type": "ADME"}, "Klebsiella pneumoniae [3]": {"tested_on": "Klebsiella pneumoniae", "assay": "Antibacterial activity against wild-type Klebsiella pneumoniae ATCC 13883 assessed as inhibition of bacterial growth incubated for 18 hrs", "type": "functional", "settings": "read-out: MIC100"}, "Klebsiella pneumoniae [4]": {"tested_on": "Klebsiella pneumoniae", "assay": "Bactericidal activity against Klebsiella pneumoniae ATCC 13883 at 0 to 8 times MIC measured for 24 hrs by time-kill assay", "type": "functional, organism-based"}, "[5]": {"assay": "Drug uptake in Escherichia coli ATCC 25922 at 10 uM incubated for 10 mins by LC-MS/MS analysis", "type": "ADME"}, "Klebsiella pneumoniae [6]": {"tested_on": "Klebsiella pneumoniae", "assay": "Antibacterial activity against Klebsiella pneumoniae ATCC 13883 assessed as inhibition of bacterial growth incubated for 18 hrs in presence of 25 mM bicarbonate", "type": "functional, organism-based"}, "Pseudomonas aeruginosa": {"tested_on": "Pseudomonas aeruginosa", "assay": "Antibacterial activity against efflux-deficient Pseudomonas aeruginosa PAO750 assessed as inhibition of bacterial growth incubated for 18 hrs", "type": "functional", "settings": "read-out: MIC100"}, "[7]": {"assay": "Lipophilicity, logD of compound at pH 7.4", "type": "physicochemical", "settings": "buffer"}, "Cell membrane": {"tested_on": "Cell membrane", "assay": "Induction of membrane permeabilization in Escherichia coli ATCC 25922 at 32 to 64 ug/ml measured after 30 mins to 2 hrs by Sytox Green labelling based microscopic analysis", "type": "cell membranes", "settings": "dose 32-64 µg/ml, time 0.5-2 hrs"}, "Escherichia coli [8]": {"tested_on": "Escherichia coli", "assay": "Antibacterial activity against Escherichia coli ATCC 35218 infected in Swiss albino mouse septicemia model assessed as log10 reduction in bacterial burden below stasis in spleen at 20 mg/kg, iv administered twice every 2 hrs and measured after 5 hrs", "type": "functional"}, "Proteus mirabilis": {"tested_on": "Proteus mirabilis", "assay": "Antibacterial activity against Proteus mirabilis ATCC 7002 assessed as inhibition of bacterial growth incubated for 18 hrs", "type": "functional", "settings": "read-out: MIC100"}, "[9]": {"assay": "Volume of distribution at steady state in Swiss mouse at 10 mg/kg, iv administered as single bolus dose and measured upto 24 hrs by LC-MS/MS analysis", "type": "ADME, organism-based", "settings": "in vivo, read-out: Vdss"}, "Escherichia coli [10]": {"tested_on": "Escherichia coli", "assay": "Antibacterial activity against Escherichia coli panel (100 strains) assessed as inhibition of bacterial growth", "type": "functional"}, "Escherichia coli [11]": {"tested_on": "Escherichia coli", "assay": "Antibacterial activity against wild-type Escherichia coli ATCC 25922 assessed as inhibition of bacterial growth incubated for 18 hrs", "type": "functional", "settings": "read-out: MIC100"}, "[12]": {"assay": "Hemolytic activity in human red blood cells at 400 ug/ml incubated for 45 mins by spectrophotometric analysis relative to control", "type": "toxicity, cell-based, Erythrocyte", "settings": "red blood cells (erythrocytes), at 400 µg/mL, read-out: Activity"}, "Klebsiella pneumoniae [13]": {"tested_on": "Klebsiella pneumoniae", "assay": "Antibacterial activity against Klebsiella pneumoniae ATCC 43816 assessed as inhibition of bacterial growth incubated for 18 hrs", "type": "functional", "settings": "read-out: MIC100"}, "Escherichia coli [14]": {"tested_on": "Escherichia coli", "assay": "Antibacterial activity against Escherichia coli ATCC 35218 infected in Swiss albino mouse septicemia model at 10 to 30 mg/kg, iv administered twice every 2 hrs and measured after 5 hrs", "type": "functional, organism-based", "settings": "dose 10-30 mg/kg"}, "Staphylococcus aureus": {"tested_on": "Staphylococcus aureus", "assay": "Antibacterial activity against wild type Staphylococcus aureus USA300 assessed as inhibition of bacterial growth incubated for 18 hrs", "type": "functional", "settings": "read-out: MIC100"}, "[15]": {"assay": "Chemical stability of compound in glutathione", "type": "physicochemical"}, "Escherichia coli [16]": {"tested_on": "Escherichia coli", "assay": "Antibacterial activity against colistin resistant Escherichia coli NCTC 13846 harboring mcr-1 gene assessed as inhibition of bacterial growth incubated for 18 hrs", "type": "functional", "settings": "read-out: MIC100"}}, "note": "The source made the active and inactive calls. The calls are words filed in the database; no cut-off is given here.", "data": [{"smiles": "CC[C@H](C)[C@@H](NC(=O)[C@@H](NC(=O)[C@H](CCC(=O)O)NC(=O)[C@H](Cc1ccccc1)NC(=O)[C@@H](CCN)NC(=O)[C@H](CCN)NC(=O)[C@H](CO)NC(=O)[C@@H](Cc1c[nH]c2ccccc12)NC(=O)[C@@H](CO)NC(=O)CNC(=O)[C@@H](CCN)NC(=O)[C@H](NC(=O)[C@H](C)N)C(C)C)C(C)C)C(=O)N[C@@H](C)C(=O)O", "values": [{"measurement": "Cmax", "setting": "[1]", "result": 152, "unit": "µg/mL"}, {"measurement": "MIC", "setting": "Citrobacter freundii", "result": 4, "unit": "µg/mL"}, {"measurement": "fold change (FC)", "setting": "Escherichia coli [2]", "result": 2}, {"measurement": "Activity", "setting": "Cytochrome P450 2B6", "result": "Not Active"}, {"measurement": "MIC", "setting": "Klebsiella pneumoniae [3]", "result": 4, "unit": "µg/mL"}, {"measurement": "Activity", "setting": "Klebsiella pneumoniae [4]", "result": "Active"}, {"measurement": "Drug uptake", "setting": "[5]", "result": "Active"}, {"measurement": "Activity", "setting": "Klebsiella pneumoniae [6]", "result": "Active"}, {"measurement": "MIC", "setting": "Pseudomonas aeruginosa", "result": 32, "unit": "µg/mL"}, {"measurement": "logD", "setting": "[7]", "result": 1.36}, {"measurement": "Activity", "setting": "Cell membrane", "result": "Active"}, {"measurement": "log(activity)", "setting": "Escherichia coli [8]", "result": 1}, {"measurement": "MIC", "setting": "Proteus mirabilis", "result": "> 64", "unit": "µg/mL"}, {"measurement": "Vd", "setting": "[9]", "result": 0.1, "unit": "L/kg"}, {"measurement": "MIC50", "setting": "Escherichia coli [10]", "result": 4, "unit": "µg/mL"}, {"measurement": "MIC90", "setting": "Escherichia coli [10]", "result": 8, "unit": "µg/mL"}, {"measurement": "MIC", "setting": "Escherichia coli [11]", "result": 4, "unit": "µg/mL"}, {"measurement": "hemolysis at 0.75 h, 400 ug/ml", "setting": "[12]", "result": 9.1, "unit": "%"}, {"measurement": "MIC", "setting": "Klebsiella pneumoniae [13]", "result": 8, "unit": "µg/mL"}, {"measurement": "Activity", "setting": "Escherichia coli [14]", "result": "Active"}, {"measurement": "MIC", "setting": "Staphylococcus aureus", "result": "> 32", "unit": "µg/mL"}, {"measurement": "Stability", "setting": "[15]", "result": "Stable"}, {"measurement": "MIC", "setting": "Escherichia coli [16]", "result": 2, "unit": "µg/mL"}]}]}
